One test deals with T1, PfCRT variant H46A (Plasmodium falciparum, UniProt Q9N623, A220S/H46A/I356T/K76T/M74I/N326S/N75E/Q271E/R371I).
T1 sequence (Q9N623 1-424 H46A/M74I/N75E/K76T/A220S/Q271E/N326S/I356T/R371I): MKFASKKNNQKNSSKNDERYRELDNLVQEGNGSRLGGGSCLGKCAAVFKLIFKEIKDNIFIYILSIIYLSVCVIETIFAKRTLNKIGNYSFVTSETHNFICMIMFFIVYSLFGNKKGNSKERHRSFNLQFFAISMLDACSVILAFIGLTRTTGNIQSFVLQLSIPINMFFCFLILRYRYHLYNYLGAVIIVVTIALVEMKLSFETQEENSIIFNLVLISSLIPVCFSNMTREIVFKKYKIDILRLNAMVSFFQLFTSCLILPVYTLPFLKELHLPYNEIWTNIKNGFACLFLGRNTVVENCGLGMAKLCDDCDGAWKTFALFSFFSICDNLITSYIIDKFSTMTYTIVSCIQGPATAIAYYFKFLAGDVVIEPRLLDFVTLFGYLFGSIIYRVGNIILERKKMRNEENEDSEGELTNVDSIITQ
Nature of the test: CQ uptake assay, oocytes expressing H46A. It is filed as cell-based. Here is the method:
(§1) Site-directed mutagenesis of PfCRT^Dd2 was performed as described using the megaprimer method with overlap extension[21],[54]. The primer pairs used are listed in Supplementary Table 6. Please note that a codon-optimized and oocyte-adapted version of PfCRT^Dd2 was used[22] (Supplementary Fig. 16). The resulting DNA fragment was cloned into the SP64T expression vector and verified by sequencing.
(§2) Oocytes were obtained as described previously. Briefly, adult (>2 years old) female X. laevis frogs (NASCO) were anesthetized in a cooled solution of ethyl 3-amino benzoate methanesulfonate (0.1%, w/v), followed by a surgical removal of parts of the ovary. The ovary lobes were carefully dissected and small pieces of oocytes were incubated in Ca^2+-free ND96 buffer (96 mM NaCl, 2 mM KCl, 1 mM MgCl2 buffered with 5 mM HEPES/NaOH, pH 7.5) supplemented with collagenase D (0.1%, w/v; Roche), BSA (0.5%, w/v), and 9 mm Na2HPO4 at 18 °C for 14-16 h while gentle shaking. After incubation, the oocytes were carefully washed several times with ND96 buffer (96 mM NaCl, 2 mM KCl, 1.8 mM CaCl2, 1 mM MgCl2 buffered with 5 mM HEPES/NaOH, pH 7.5) supplemented with 100 mg l^−1 gentamycin). Defolliculated and healthy-looking stage V-VI oocytes were manually selected for RNA microinjection. The RNA was generated as following: The codon-optimized sequences of PfCRT variants were cloned into the pSP64T expression vector. After vector linearization using the restriction endonucleases BamHI or SalI (New England Biolabs), transcription was performed using the in vitro SP6 mMessage mMachine Kit (Ambion)[34]. The obtained RNA was kept at −80 °C and diluted with nuclease-free water to a concentration of 0.6 μg μl^−1. Precision-bore glass capillary tubes (3.5-inch glass capillaries; Drummond Scientific Co.) were pulled on a vertical puller (P-87 Flaming/Brown micropipette puller, Sutter Instrument Co.), graduated, and placed on a microinjector (Nanoject II Auto-Nanoliter Injector, Drummond Scientific Co.). 50 nl of nuclease-free water alone (control oocytes) or 50 nl of 0.6 μg μl^−1 RNA were injected under stereomicroscopic control. Injected oocytes were incubated for 46–72 h at 18 °C with twice-daily buffer changes before usage in experiments.
Drug uptake assays were performed as described previously[21],[22],[24],[34]. […] The direction of radio-labeled drug transport is here from the mostly acidic extracellular solution (pH 4.5 or 6.0, as indicated) into the oocyte cytosol (pH ∼ 7.2), which corresponds to the efflux of drug from the acidic digestive vacuole (pH 5.2) into the parasite cytoplasm (pH 7.2). The topology of PfCRT in the oolemma is such that both the N- and C-terminus face the extracellular milieu[3],[22]. In the parasite, the N- and C-terminus face the lumen of the digestive vacuole. CQ uptake kinetics were performed by incubating oocytes in ND96 buffer adjusted to a pH of 4.5, 5.0, 5.5, or 6.0 and supplemented with 50 nM [^3H]CQ and one of 7 different CQ concentrations (10 µM, 50 µM, 100 µM, 200 µM, 300 µM, 400 µM, 500 µM CQ). The reaction was stopped at the 60 min time point, which is in the linear uptake range[22],[34] (Supplementary Fig. 17). For determination of the amount of drug uptake for each oocyte, the reaction medium was removed and the oocytes were washed three times with 2 ml of ice-cold ND96 buffer. Each oocyte was individually transferred to a scintillation vial containing 5% sodium dodecyl sulfate (200 μl) for lysis. The radioactivity of each sample was measured using a liquid scintillation analyzer Tri-Carb 4910 TR (PerkinElmer). Oocytes that were injected with water instead of RNA were analyzed in parallel, representing the uptake of a drug by diffusion and/or endogenous permeation pathways. The resulting value represents the “background“ level of drug accumulation in oocytes (in-depth discussion in[22]). […]

In another test the target is T2, PfCRT variant E198A (Plasmodium falciparum, UniProt Q9N623, A220S/E198A/I356T/K76T/M74I/N326S/N75E/Q271E/R371I).
T2 sequence (Q9N623 1-424 M74I/N75E/K76T/E198A/A220S/Q271E/N326S/I356T/R371I): T1 sequence (Q9N623 1-424 H46A/M74I/N75E/K76T/A220S/Q271E/N326S/I356T/R371I) with A46H, E198A
The experiment in a line: CQ uptake assay, oocytes expressing E198A. In kind it is cell-based. Here is the method: as §1, §2
Drug uptake assays were performed as described previously[21],[22],[24],[34]. […] The direction of radio-labeled drug transport is here from the mostly acidic extracellular solution (pH 4.5 or 6.0, as indicated) into the oocyte cytosol (pH ∼ 7.2), which corresponds to the efflux of drug from the acidic digestive vacuole (pH 5.2) into the parasite cytoplasm (pH 7.2). The topology of PfCRT in the oolemma is such that both the N- and C-terminus face the extracellular milieu[3],[22]. In the parasite, the N- and C-terminus face the lumen of the digestive vacuole. CQ uptake kinetics were performed by incubating oocytes in ND96 buffer adjusted to a pH of 4.5, 5.0, 5.5, or 6.0 and supplemented with 50 nM [^3H]CQ and one of 7 different CQ concentrations (10 µM, 50 µM, 100 µM, 200 µM, 300 µM, 400 µM, 500 µM CQ). The reaction was stopped at the 60 min time point, which is in the linear uptake range[22],[34] (Supplementary Fig. 17). […] The radioactivity of each sample was measured using a liquid scintillation analyzer Tri-Carb 4910 TR (PerkinElmer). Oocytes that were injected with water instead of RNA were analyzed in parallel, representing the uptake of a drug by diffusion and/or endogenous permeation pathways. […]

Setting [1] is: H46A, 50 µM CQ, 1 h, mean ± SEM.
[2] abbreviates: pH 4.5, single replicates, Fig 1d left.
The mark [3] stands for this setting: pH 6.0, single replicates, Fig 1d left.
[4] abbreviates: E198A, 50 µM CQ, 1 h, mean ± SEM.

Changes are numbered by the printed parent chain. Values joined by “and” are separate entries in the source; they are usually repeats but may differ in a detail not shown here. Equal entries are not always repeated.

As to `CCN(CC)CCCC(C)Nc1ccnc2cc(Cl)ccc12` (centres unmarked) [CQ, chloroquine], the entries for the “Activity at pH 4.5” value on PfCRT variant H46A (setting [1]) and on PfCRT variant E198A (setting [4]) were 2.03 ± 0.27 pmol h-1 oocyte-1 and 1.23 ± 0.15 pmol h-1 oocyte-1, respectively. Moreover, the “Activity at pH 6.0” value at PfCRT variant H46A (setting [1]) is recorded as 5.06 ± 0.47 pmol h-1 oocyte-1; on PfCRT variant E198A (setting [4]), 3.10 ± 0.44 pmol h-1 oocyte-1. Moreover, the R-value at PfCRT variant H46A (H46A, CQ transport at pH 4.5 / pH 6.0) stood at 0.40 ± 0.03; at PfCRT variant E198A (E198A, CQ transport at pH 4.5 / pH 6.0), 0.44 ± 0.11. Moreover, the “H46A transport activity pH 4.5” value on PfCRT variant H46A (setting [2]) was 2.52 pmol oocyte-1 h-1 and 1.13 pmol oocyte-1 h-1 and 2.13 pmol oocyte-1 h-1 and 2.35 pmol oocyte-1 h-1. The “H46A R-value” at PfCRT variant H46A (pH 4.5 vs pH 6.0, Fig 1d left) is 0.45 and 0.32 and 0.36. Besides, the “H46A transport activity pH 6.0” value at PfCRT variant H46A (setting [3]) is 5.57 pmol oocyte-1 h-1 and 3.48 pmol oocyte-1 h-1 and 5.92 pmol oocyte-1 h-1 and 5.27 pmol oocyte-1 h-1. In addition, the “E198A transport activity pH 4.5” value on PfCRT variant E198A (setting [2]) is 1.49 pmol oocyte-1 h-1 and 1.34 pmol oocyte-1 h-1 and 0.87 pmol oocyte-1 h-1. For the same compound, the “E198A transport activity pH 6.0” value on PfCRT variant E198A (setting [3]) is 2.08 pmol oocyte-1 h-1 and 3.94 pmol oocyte-1 h-1 and 3.27 pmol oocyte-1 h-1.
